# Results taken from ChEMBL document CHEMBL5360533, “Targeting ecto-5'-nucleotidase: A comprehensive review into small molecule inhibitors and expression modulators” (Eur J Med Chem, 2023).
# Tests used:
# 5'-nucleotidase [1] = target: T1, 5'-nucleotidase (Mus musculus, UniProt Q61503); experiment: Inhibition of mouse Ecto-5'-nucleotidase
# T1 sequence (Q61503 whole entry): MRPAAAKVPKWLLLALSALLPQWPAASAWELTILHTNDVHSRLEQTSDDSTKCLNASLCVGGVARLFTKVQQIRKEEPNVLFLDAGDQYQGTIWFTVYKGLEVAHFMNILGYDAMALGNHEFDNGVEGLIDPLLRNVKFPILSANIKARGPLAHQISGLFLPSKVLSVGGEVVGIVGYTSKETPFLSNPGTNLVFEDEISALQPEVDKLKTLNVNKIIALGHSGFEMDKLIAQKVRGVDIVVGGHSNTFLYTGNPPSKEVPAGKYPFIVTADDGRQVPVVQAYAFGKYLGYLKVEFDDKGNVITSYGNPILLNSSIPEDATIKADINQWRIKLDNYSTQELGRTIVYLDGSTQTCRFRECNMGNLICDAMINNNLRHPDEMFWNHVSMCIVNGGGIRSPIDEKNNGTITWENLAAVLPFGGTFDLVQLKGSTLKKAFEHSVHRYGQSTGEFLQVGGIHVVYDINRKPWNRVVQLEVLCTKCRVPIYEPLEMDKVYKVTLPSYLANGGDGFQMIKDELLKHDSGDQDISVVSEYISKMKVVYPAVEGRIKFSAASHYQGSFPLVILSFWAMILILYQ
# [2] = target: T2, Alkaline phosphatase, tissue-nonspecific isozyme (Homo sapiens, UniProt P05186); experiment: Inhibition of human TNAP
# T2 sequence (P05186 whole entry): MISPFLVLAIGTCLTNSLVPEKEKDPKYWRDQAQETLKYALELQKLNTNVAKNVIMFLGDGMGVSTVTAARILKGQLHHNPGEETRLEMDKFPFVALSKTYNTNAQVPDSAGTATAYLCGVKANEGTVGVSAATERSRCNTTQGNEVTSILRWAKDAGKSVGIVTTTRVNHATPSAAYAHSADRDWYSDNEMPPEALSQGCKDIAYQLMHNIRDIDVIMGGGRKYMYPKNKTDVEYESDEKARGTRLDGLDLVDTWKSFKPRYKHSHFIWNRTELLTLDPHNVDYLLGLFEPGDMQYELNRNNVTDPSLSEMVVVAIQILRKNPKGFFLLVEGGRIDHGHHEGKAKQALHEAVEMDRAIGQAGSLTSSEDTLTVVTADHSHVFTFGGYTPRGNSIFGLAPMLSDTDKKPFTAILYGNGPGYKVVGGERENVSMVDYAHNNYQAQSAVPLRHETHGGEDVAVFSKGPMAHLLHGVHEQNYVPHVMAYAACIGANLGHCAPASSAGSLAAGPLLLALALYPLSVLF
# HeLa [3] = experiment: Cytotoxicity against human HeLa cells; format: functional, cell-based
# 5'-nucleotidase [4] = target: T3, 5'-nucleotidase (Rattus norvegicus, UniProt P21588); experiment: Inhibition of rat Ecto-5'-nucleotidase
# T3 sequence (P21588 whole entry): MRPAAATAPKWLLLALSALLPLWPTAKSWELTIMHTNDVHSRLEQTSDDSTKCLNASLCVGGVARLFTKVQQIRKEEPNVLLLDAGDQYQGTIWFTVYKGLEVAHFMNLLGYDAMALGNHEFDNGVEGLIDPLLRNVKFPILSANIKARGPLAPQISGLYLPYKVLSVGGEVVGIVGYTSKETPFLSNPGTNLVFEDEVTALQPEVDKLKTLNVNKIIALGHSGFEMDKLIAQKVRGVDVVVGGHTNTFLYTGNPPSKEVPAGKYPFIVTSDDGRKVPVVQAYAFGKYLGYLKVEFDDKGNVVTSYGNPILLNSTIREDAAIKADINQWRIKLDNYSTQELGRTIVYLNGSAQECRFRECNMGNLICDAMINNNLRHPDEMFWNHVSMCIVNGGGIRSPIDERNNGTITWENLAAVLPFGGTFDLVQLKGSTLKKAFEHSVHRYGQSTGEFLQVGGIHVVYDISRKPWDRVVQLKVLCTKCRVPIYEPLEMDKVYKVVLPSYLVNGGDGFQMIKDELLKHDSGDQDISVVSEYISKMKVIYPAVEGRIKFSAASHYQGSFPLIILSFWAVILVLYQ
# 5'-nucleotidase [5] = target: T4, 5'-nucleotidase (Homo sapiens, UniProt P21589); experiment: Inhibition of human N-terminal Ecto-5'-nucleotidase
# 5'-nucleotidase [6] = target: T4, 5'-nucleotidase; experiment: Inhibition of human CD73
# 5'-nucleotidase [7] = target: T4, 5'-nucleotidase; experiment: Inhibition of human CD73 expressed in A-375 cells; format: cell-based
# 5'-nucleotidase [8] = target: T4, 5'-nucleotidase; experiment: Inhibition of human recombinant CD73
# 5'-nucleotidase [9] = target: T4, 5'-nucleotidase; experiment: Inhibition of N-terminal human Ecto-5'-nucleotidase at 250 uM relative to control
# 5'-nucleotidase [10] = target: T4, 5'-nucleotidase; experiment: Inhibition of human recombinant Ecto-5'-nucleotidase
# [11] = Cytotoxicity against hamster BHK-21 cells assessed as inhibition of cell viability at 100 uM measured after 24 hrs by MTT assay; format: toxicity, cell-based, Mesocricetus auratus; conditions: read-out: INH
# HeLa [12] = experiment: Cytotoxicity against human HeLa cells assessed as inhibition of cell viability at 100 uM measured after 24 hrs by MTT assay; format: functional
# 5'-nucleotidase [13] = target: T4, 5'-nucleotidase; experiment: Inhibition of recombinant CD73 (unknown origin)
# 5'-nucleotidase [14] = target: T4, 5'-nucleotidase; experiment: Inhibition of human Ecto-5'-nucleotidase in rat C6 cells at 200 uM relative to control; format: cell-based
# 5'-nucleotidase [15] = target: T4, 5'-nucleotidase; experiment: Inhibition of human Ecto-5'-nucleotidase in rat C6 cells at 100 uM relative to control; format: cell-based
# Trichomonas vaginalis = experiment: Antiprotozoal activity against Trichomonas vaginalis ATCC 30236 assessed as parasitic growth inhibition measured after 24 hrs by cytometry analysis; format: functional, organism-based; conditions: ATCC 30236, 24 h
# 5'-nucleotidase [16] = target: T4, 5'-nucleotidase; experiment: Binding affinity to human recombinant Ecto-5'-nucleotidase assessed as inhibition constant
# 5'-nucleotidase [17] = target: T4, 5'-nucleotidase; experiment: Inhibition of human recombinant CD73 in mouse 4T1 cells at 12.5 ug/ml incubated for 24 hrs by Western blot analysis relative to control; format: cell-based; conditions: dose 12.5 µg/ml
# 5'-nucleotidase [18] = target: T4, 5'-nucleotidase; experiment: Inhibition of human recombinant CD73 in MDA-MB-231 cells at 12.5 ug/ml incubated for 24 hrs by Western blot analysis relative to control; format: cell-based; conditions: dose 12.5 µg/ml
# T4 sequence (P21589 whole entry): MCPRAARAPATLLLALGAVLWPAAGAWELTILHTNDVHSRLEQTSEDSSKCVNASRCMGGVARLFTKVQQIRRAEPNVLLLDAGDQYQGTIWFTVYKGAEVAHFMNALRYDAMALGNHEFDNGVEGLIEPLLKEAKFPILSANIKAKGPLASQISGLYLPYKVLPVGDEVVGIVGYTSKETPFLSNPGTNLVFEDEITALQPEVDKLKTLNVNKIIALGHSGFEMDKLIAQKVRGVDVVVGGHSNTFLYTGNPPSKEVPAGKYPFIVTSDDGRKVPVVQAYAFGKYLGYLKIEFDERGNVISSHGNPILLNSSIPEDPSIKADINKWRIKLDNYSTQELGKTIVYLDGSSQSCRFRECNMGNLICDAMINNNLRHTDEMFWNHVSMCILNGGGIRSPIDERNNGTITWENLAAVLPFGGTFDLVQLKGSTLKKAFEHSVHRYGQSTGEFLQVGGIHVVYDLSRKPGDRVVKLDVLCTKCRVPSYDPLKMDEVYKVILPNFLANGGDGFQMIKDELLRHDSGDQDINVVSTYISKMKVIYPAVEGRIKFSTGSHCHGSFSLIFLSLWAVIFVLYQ
smiles,measurement,setting,value
O=C(N/N=C/c1ccc(Br)cc1)c1ccccc1,IC50,5'-nucleotidase [1],230 nM
O=c1oc2ccccc2cc1-c1csc(/N=C/c2cccc([N+](=O)[O-])c2)n1,IC50,[2],250 nM
CCc1ccc2occ(/C=N/NS(=O)(=O)c3ccc(C)cc3)c(=O)c2c1,IC50,HeLa [3],86000 nM
Cc1nn(-c2ccccc2)c2nc(-c3ccccc3O)ccc12,IC50,5'-nucleotidase [4],640 nM
same,IC50,5'-nucleotidase [5],25800 nM
O=C(N/N=C/c1cccnc1)c1ccccc1,IC50,5'-nucleotidase [1],210 nM
COc1ccc(CN(C)C(=O)Nc2sc3c(c2C(=O)OC(C)(C)C)CCN(Cc2ccccc2)C3)cc1OC,IC50,5'-nucleotidase [5],45800 nM
O=P(O)(O)COC[C@H]1O[C@@H](n2ncc3c(N4CC5(CCc6ccccc65)C4)nc(Cl)nc32)[C@H](O)[C@@H]1O,IC50,5'-nucleotidase [6],0.05 nM
same,IC50,5'-nucleotidase [7],0.051 nM
CC1=CC(=O)C2(C=C(c3cc4oc(=O)c5cc(O)c(O)cc5c4c(=O)o3)c3cc(O)c(O)cc32)O1 (stereo not given),IC50,5'-nucleotidase [8],6720 nM
Fc1cccc(-c2ccc3nc(C(F)(F)F)cc(-c4cccc(F)c4)c3c2)c1,IC50,5'-nucleotidase [5],1190 nM
C=Cn1cc[n+](Cc2ccc(O)c(C=O)c2)c1,IC50,5'-nucleotidase [1],1930 nM
same,IC50,5'-nucleotidase [5],1140 nM
O=c1c(O)c(-c2ccc(O)c(O)c2)oc2cc(O)cc(O)c12 [QUERCETIN],IC50,5'-nucleotidase [5],45300 nM
COc1c2c(cc3c1C(=O)O[C@H]1[C@@H]3[C@H]3C(=C[C@@H]1O)CCN3C)OCO2,inhibition,5'-nucleotidase [9],59%
COc1ccc(/C=N/NC(=O)c2ccccc2)cc1,IC50,5'-nucleotidase [1],13800 nM
O=C(CSc1nnc(-c2c[nH]c3ccccc23)n1Cc1ccccc1)NO,IC50,5'-nucleotidase [10],6200 nM
O=C1CNC(=S)N1/N=C/c1ccc(Br)s1,"cytotoxicity at 24 h, 100 µM",[11],4.31%
same,inhibition at 100 µM,HeLa [12],4.31%
O=C1c2cc3c(cc2[C@@H]2[C@H](O)[C@@H](O)C=C4CCN1[C@H]42)OCO3,inhibition,5'-nucleotidase [9],88%
CC(=O)c1cc2ccccc2oc1=O [3-ACETYLCOUMARIN],IC50,5'-nucleotidase [10],4660 nM
CC(=O)c1sc(N/N=C/c2cc3ccccc3[nH]2)nc1C,IC50,5'-nucleotidase [5],320 nM
COc1cc(/C=N/N2C(=O)CNC2=S)cc(OC)c1OC,"cytotoxicity at 24 h, 100 µM",[11],4.31%
same,inhibition at 100 µM,HeLa [12],4.31%
C/C(=N\NC(=O)c1ccncc1)N1N=C(c2ccc(F)cc2)CC1c1ccccc1 (stereo not given),IC50,5'-nucleotidase [1],190 nM
O=C(Nc1ccncc1)c1ccc(Cl)cc1,IC50,5'-nucleotidase [5],290 nM
COc1cc(/C=N/NC(=O)c2ccccc2)ccc1O,IC50,5'-nucleotidase [1],680 nM
O=P(O)(O)CP(=O)(O)C[C@@H](O)[C@H]1O[C@@H](n2cc(-c3ccc4ccccc4c3)nn2)[C@H](O)[C@@H]1O,IC50,5'-nucleotidase [13],860 nM
FC(F)(F)c1cc(Cl)c2cc(Br)ccc2n1,IC50,5'-nucleotidase [5],1720 nM
Nc1ncnc2c1ncn2[C@@H]1O[C@H](COC(C(=O)O)P(=O)(O)O)[C@@H](O)[C@H]1O (stereo not given in full),IC50,5'-nucleotidase [8],19000 nM
CCOC(=O)C1=C(C)NC(=S)NC1c1ccc(N(C)C)cc1 (stereo not given),inhibition,5'-nucleotidase [14],48%
same,inhibition,5'-nucleotidase [15],36%
CCCC(=O)c1c(O)c2c(c(CC3=C(O)C(C)(CC=C(C)C)C(=O)C(C(=O)C(C)C)=C3O)c1O)OC(C)(C)C=C2 (stereo not given),IC50,Trichomonas vaginalis,38000 nM
CC(=O)c1sc(N/N=C/c2ccc[nH]2)nc1C,IC50,5'-nucleotidase [5],320 nM
C/C(=N\NS(=O)(=O)c1ccccc1)c1cc2ccccc2oc1=O,IC50,5'-nucleotidase [10],290 nM
O=c1oc(/C=C/c2ccc(O)c(O)c2)cc2oc3cc(O)c(O)cc3c12 [PHELLIBAUMIN A],IC50,5'-nucleotidase [8],17100 nM
Cc1ccc(-n2cc(C#N)c3cc4c(=O)oc5ccc(C)cc5c4nc32)cc1,IC50,5'-nucleotidase [5],160 nM
COc1cccc(COc2ccc(/C=N/N3C(=O)CNC3=S)cc2)c1,"cytotoxicity at 24 h, 100 µM",[11],4.31%
same,inhibition at 100 µM,HeLa [12],4.31%
same,IC50,5'-nucleotidase [5],280 nM
Cc1ccc(C(=O)N2CCc3cc(-c4nc(NC(=O)CN5CCc6ccccc6C5)sc4C)ccc32)cc1,Ki,5'-nucleotidase [16],530 nM
O=P(O)(O)CP(=O)(O)C[C@@H](O)[C@H]1O[C@@H](n2cc(-c3cc(C(F)(F)F)cc(C(F)(F)F)c3)nn2)[C@H](O)[C@@H]1O,IC50,5'-nucleotidase [13],4800 nM
C=C[C@]1(C)C[C@@H](OC(=O)CSCCN(CC)CC)[C@]2(C)[C@H](C)CC[C@]3(CCC(=O)[C@H]32)[C@@H](C)[C@@H]1O,inhibition,5'-nucleotidase [17],31.4%
same,inhibition,5'-nucleotidase [18],53.9%
CC(=O)c1sc(N/N=C/c2ccc(N(C)C)cc2)nc1C,IC50,5'-nucleotidase [5],320 nM
Cc1ccc(S(=O)(=O)N/N=C/c2coc3ccc(Br)cc3c2=O)cc1,IC50,HeLa [3],30200 nM
O=S1(=O)NC(Nc2cccc3[nH]ncc23)=Nc2c1cc(Cl)c(F)c2O,IC50,5'-nucleotidase [8],15 nM
Fc1cccc(-c2ccc3nc(C(F)(F)F)cc(Cl)c3c2)c1,IC50,5'-nucleotidase [5],1780 nM
Cc1cc2c(cc1O)c(=O)oc1cc(/C=C/c3ccc(O)c(O)c3)oc(=O)c12,IC50,5'-nucleotidase [8],35100 nM
COc1ccc(-c2ccc3nc(C(F)(F)F)cc(-c4ccc(OC)cc4)c3c2)cc1,IC50,5'-nucleotidase [5],1130 nM
